Source: US9833497B2, “Human originated EGF domain proteins and use of the same” (CHENGDU SOURCEBIO LIMITED-LIABILITY COMPANY, priority 2013, dated 2017)

Columns and labels:
Type in all cases: cell-based
Klebsiella pneumonia = test: MIC against Gram-negative bacteria: Klebsiella pneumonia; settings: Klebsiella pneumonia; 96-well plate, 5×10^5 CFU/mL, 37° C., 10 h
Summary of the method: (§1)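 The recombinant human-originated EGF domain proteins were serially diluted two-fold against bacteria at 5×10^5 CFU/mL in LB medium. After shaken incubation at 37° C, the lowest concentration with no bacterial growth was recorded as the MIC.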

Moraxella catarrhalis = test: MIC against Gram-negative bacteria: Moraxella catarrhalis; settings: Moraxella catarrhalis; 96-well plate, 5×10^5 CFU/mL, 37° C., 10 h
Summary of the method: as §1

Serratia marcescens = test: MIC against Gram-negative bacteria: Serratia marcescens; settings: Serratia marcescens; 96-well plate, 5×10^5 CFU/mL, 37° C., 10 h
Summary of the method: as §1

Citrobacter diversus = test: MIC against Gram-negative bacteria: Citrobacter diversus; settings: Citrobacter diversus; 96-well plate, 5×10^5 CFU/mL, 37° C., 10 h
Summary of the method: as §1

Aeromonas hydrophila = test: MIC against Gram-negative bacteria: Aeromonas hydrophila; settings: Aeromonas hydrophila; 96-well plate, 5×10^5 CFU/mL, 37° C., 10 h
Summary of the method: as §1

Pseudomonas aeruginosa = test: MIC against Gram-negative bacteria: Pseudomonas aeruginosa; settings: Pseudomonas aeruginosa; 96-well plate, 5×10^5 CFU/mL, 37° C., 10 h
Summary of the method: as §1

Enterobacter cloacae = test: MIC against Gram-negative bacteria: Enterobacter cloacae; settings: Enterobacter cloacae; 96-well plate, 5×10^5 CFU/mL, 37° C., 10 h
Summary of the method: as §1

Proteus mirabilis = test: MIC against Gram-negative bacteria: Proteus mirabilis; settings: Proteus mirabilis; 96-well plate, 5×10^5 CFU/mL, 37° C., 10 h
Summary of the method: as §1

Proteus vulgaris = test: MIC against Gram-negative bacteria: Proteus vulgaris; settings: Proteus vulgaris; 96-well plate, 5×10^5 CFU/mL, 37° C., 10 h
Summary of the method: as §1

E. coli BL21 = test: MIC against Gram-negative bacteria: E. coli BL21; settings: E. coli BL21; 96-well plate, 5×10^5 CFU/mL, 37° C., 10 h
Summary of the method: as §1

E. coli DH5α = test: Antibacterial activity: MIC and growth curve against E. coli DH5α in 96-well plate; settings: minimal inhibitory concentration against E. coli DH5α; 96-well plate, 5×10^5 CFU/mL, 37° C., judged after 8 h
Summary of the method: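 MIC taken as lowest protein level with no bacterial growth, tracked by A600 every 30 min during 37 °C, 175 rpm culture. Two-fold protein series 50-12.5 μg/mL final, triplicate wells, against 5×10^5 CFU/mL of LB-washed mid-log cells.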

Substance | MIC (μg/mL) K. pneumonia (Klebsiella pneumonia) | MIC (μg/mL) M. catarrhalis (Moraxella catarrhalis) | MIC (μg/mL) S. marcescens (Serratia marcescens) | MIC (μg/mL) C. diversus (Citrobacter diversus) | MIC (μg/mL) A. hydrophila (Aeromonas hydrophila) | MIC (μg/mL) P. aeruginosa (Pseudomonas aeruginosa) | MIC (μg/mL) E. cloacae (Enterobacter cloacae) | MIC (μg/mL) P. mirabilis (Proteus mirabilis) | MIC (μg/mL) P. vulgaris (Proteus vulgaris) | MIC (μg/mL) E. coli BL21 (E. coli BL21) | MIC (E. coli DH5α)
PRT86 (VTNACASGPCPPHADCRDLWQTFSCTCQPGYYGPGCV; listed as Homo sapiens) | 12.5 µg/mL | 12.5 µg/mL | 12.5 µg/mL | 25 µg/mL | 12.5 µg/mL | 25 µg/mL | 25 µg/mL | 25 µg/mL | 12.5 µg/mL | 12.5 µg/mL | 50 mg/L
PRT87 (DACLLNPCQNQGSCRHLPGAPHGYTCDCVGGYFGHHCE; listed as Homo sapiens) | 50 µg/mL | 25 µg/mL | 50 µg/mL | 50 µg/mL | 25 µg/mL | 12.5 µg/mL | 12.5 µg/mL | 12.5 µg/mL | 25 µg/mL | 12.5 µg/mL | 12.5 mg/L
PRT88 (HRMDQQCPRGWWGSPTCGPCNCDVHKGFDPNCN; listed as Homo sapiens) | 100 µg/mL | 12.5 µg/mL | 12.5 µg/mL | 12.5 µg/mL | 12.5 µg/mL | 50 µg/mL | 12.5 µg/mL | 50 µg/mL | 25 µg/mL | 12.5 µg/mL | 25 mg/L
PRT89 (TNGQCHCKEFHYRPRGSDSCLPCDCYPVGSTSRSCA; listed as Homo sapiens) | 12.5 µg/mL | 12.5 µg/mL | 12.5 µg/mL | 25 µg/mL | 50 µg/mL | 12.5 µg/mL | 25 µg/mL | 25 µg/mL | 50 µg/mL | 50 µg/mL | 25 mg/L
PRT90 (CDCYPVGSTSRSCAPHSGQCPCRPGALGRQCNSCDSPFAEVTASGCRV; listed as Homo sapiens) | 12.5 µg/mL | 12.5 µg/mL | 12.5 µg/mL | 25 µg/mL | 12.5 µg/mL | 12.5 µg/mL | 12.5 µg/mL | 25 µg/mL | 12.5 µg/mL | 12.5 µg/mL | 50 mg/L
PRT91 (DTNECIQFPFVCPRDKPVCVNTYGSYRCRTNKKCSRGYEPNEDGTAC; listed as Homo sapiens) | 12.5 µg/mL | 25 µg/mL | 12.5 µg/mL | 12.5 µg/mL | 25 µg/mL | 12.5 µg/mL | 12.5 µg/mL | 12.5 µg/mL | 50 µg/mL | 12.5 µg/mL | 12.5 mg/L
PRT92 (VSDLCATGDHDCEQVCISSPGSYTCACHEGFTLNSDGKTCN; listed as Homo sapiens) | 12.5 µg/mL | 25 µg/mL | 12.5 µg/mL | 12.5 µg/mL | 25 µg/mL | 50 µg/mL | 50 µg/mL | 50 µg/mL | 25 µg/mL | 12.5 µg/mL | 50 mg/L
PRT93 (PLLHCAPGFCFPGVACIQTESGARCGPCPAGFTGNGSHCT; listed as Homo sapiens) | 12.5 µg/mL | 25 µg/mL | 12.5 µg/mL | 100 µg/mL | 25 µg/mL | 50 µg/mL | 12.5 µg/mL | 12.5 µg/mL | 12.5 µg/mL | 12.5 µg/mL | 50 mg/L
PRT94 (DVNECNAHPCFPRVRCINTSPGFRCEACPPGYSGPTHQGVGLAFAKANKQVCT; listed as Homo sapiens) | 12.5 µg/mL | 25 µg/mL | 50 µg/mL | 50 µg/mL | 12.5 µg/mL | 12.5 µg/mL | 50 µg/mL | 12.5 µg/mL | 25 µg/mL | 12.5 µg/mL | 12.5 mg/L
PRT95 (DINECETGQHNCVPNSVCINTRGSFQCGPCQPGFVGDQASGCQ; listed as Homo sapiens) | 12.5 µg/mL | 12.5 µg/mL | 25 µg/mL | 50 µg/mL | 12.5 µg/mL | 50 µg/mL | 50 µg/mL | 25 µg/mL | 50 µg/mL | 12.5 µg/mL | 25 mg/L
PRT96 (AQRFCPDGSPSECHEHADCVLERDGSRSCVCAVGWAGNGILCG; listed as Homo sapiens) | 12.5 µg/mL | 12.5 µg/mL | 12.5 µg/mL | 12.5 µg/mL | 12.5 µg/mL | 12.5 µg/mL | 12.5 µg/mL | 12.5 µg/mL | 25 µg/mL | 25 µg/mL | 12.5 mg/L
PRT97 (DSRGCARWCPQNSSCVNATACRCNPGFSSFSEIITTPTETCD; listed as Homo sapiens) | 12.5 µg/mL | 100 µg/mL | 50 µg/mL | 50 µg/mL | 12.5 µg/mL | 25 µg/mL | 12.5 µg/mL | 50 µg/mL | 12.5 µg/mL | 12.5 µg/mL | 25 mg/L
PRT98 (DINECATPSKVSCGKFSDCWNTEGSYDCVCSPGYEPVSGAKTFKNESENTCQ; listed as Homo sapiens) | 12.5 µg/mL | 100 µg/mL | 50 µg/mL | 25 µg/mL | 50 µg/mL | 25 µg/mL | 25 µg/mL | 50 µg/mL | 12.5 µg/mL | 50 µg/mL | 12.5 mg/L
